Measurements taken from patent publication EP0674651B1, “SUBSTITUTED 6-AZAANDROSTENONES” (priority 1992, dated 1994).

Assays:
[1] = target: T1, human type 1 5α-reductase (Homo sapiens, UniProt P18405); test: 5α-reductase in vitro inhibitory activity, human type 1
T1 sequence (P18405 1-259): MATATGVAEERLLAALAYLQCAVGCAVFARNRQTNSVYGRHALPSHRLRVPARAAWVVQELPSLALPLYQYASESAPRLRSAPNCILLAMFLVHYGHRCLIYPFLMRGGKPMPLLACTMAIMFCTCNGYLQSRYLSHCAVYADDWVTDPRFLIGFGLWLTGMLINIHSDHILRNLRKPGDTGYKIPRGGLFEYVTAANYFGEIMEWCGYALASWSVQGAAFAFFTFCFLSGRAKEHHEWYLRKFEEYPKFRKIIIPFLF

[2] = target: T2, human type 2 5α-reductase (Homo sapiens, UniProt P31213); test: 5α-reductase in vitro inhibitory activity, human type 2
T2 sequence (P31213 1-254): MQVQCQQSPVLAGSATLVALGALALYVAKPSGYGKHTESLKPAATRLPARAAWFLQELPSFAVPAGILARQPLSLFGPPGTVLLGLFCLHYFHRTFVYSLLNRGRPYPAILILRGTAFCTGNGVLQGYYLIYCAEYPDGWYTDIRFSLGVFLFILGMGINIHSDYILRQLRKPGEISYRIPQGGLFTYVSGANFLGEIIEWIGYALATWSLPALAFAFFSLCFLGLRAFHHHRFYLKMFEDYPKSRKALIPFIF

IC50 [1] [nM]	IC50 [2] [nM]	Compound
< 10	< 10	CC(C)(C)c1ccc(NC(=O)[C@H]2CC[C@H]3[C@@H]4CNC5=CC(=O)CC[C@]5(C)[C@H]4CC[C@]23C)c([N+](=O)[O-])c1 [Compound 82, 17β-N-(2-Nitro-4-t-butyl)phenyl-carbamoyl-6-azaandrost-4-en-3-one]
10 to 100	< 10	CCC(C)(C)c1ccc(Oc2ccccc2)c(NC(=O)[C@H]2CC[C@H]3[C@@H]4CNC5=CC(=O)CC[C@]5(C)[C@H]4CC[C@]23C)c1 [Compound 83, 17β-N-(2-(O-Phenyl)-5-(1,1-dimethyl)propyl)phenyl-carbamoyl-6-azaandrost-4-en-3-one]
10 to 100	< 10	CCc1cc(C#N)ccc1NC(=O)[C@H]1CC[C@H]2[C@@H]3CNC4=CC(=O)CC[C@]4(C)[C@H]3CC[C@]12C [Compound 84, 17β-N-(2-Ethyl-4-cyano)phenyl-carbamoyl-6-azaandrost-4-en-3-one]
< 10	< 10	CCS(=O)(=O)c1ccc(C(F)(F)F)cc1NC(=O)[C@H]1CC[C@H]2[C@@H]3CNC4=CC(=O)CC[C@]4(C)[C@H]3CC[C@]12C [Compound 85, 17β-N-(2-Ethylsulfonyl-5-trifluoromethyl)phenyl-carbamoyl-6-azaandrost-4-en-3-one]
< 10	< 10	CC(C)(C)c1cc(NC(=O)[C@H]2CC[C@H]3[C@@H]4CNC5=CC(=O)CC[C@]5(C)[C@H]4CC[C@]23C)cc(C(C)(C)C)c1 [Compound 86, 17β-N-(3,5-Di-t-butyl)phenyl-carbamoyl-6-azaandrost-4-en-3-one]
< 10	< 10	CC(C)(C)c1ccc(C(F)(F)F)cc1NC(=O)[C@H]1CC[C@H]2[C@@H]3CNC4=CC(=O)CC[C@]4(C)[C@H]3CC[C@]12C [Compound 87, 17β-N-(2-t-Butyl-5-trifluoromethyl)phenyl-carbamoyl-6-azaandrost-4-en-3-one]
< 10	< 10	CC(C)(C)c1ccc(-c2ccccc2)cc1NC(=O)[C@H]1CC[C@H]2[C@@H]3CNC4=CC(=O)CC[C@]4(C)[C@H]3CC[C@]12C [Compound 88, 17β-N-(2-t-Butyl-5-phenyl)phenyl-carbamoyl-6-azaandrost-4-en-3-one]
10 to 100	< 10	CC(C)(C)c1ccc(NC(=O)[C@H]2CC[C@H]3[C@@H]4CNC5=CC(=O)CC[C@]5(C)[C@H]4CC[C@]23C)cc1[N+](=O)[O-] [Compound 92, 17β-N-(3-Nitro-4-t-butyl)phenyl-carbamoyl-6-azaandrost-4-en-3-one]
> 100	10 to 100	CC(=O)NC[C@H]1CC[C@H]2[C@@H]3CNC4=CC(=O)CC[C@]4(C)[C@H]3CC[C@]12C [Compound 97, 17β-Aminomethyl-(acetamide)-6-azaandrost-4-en-3-one]
< 10	< 10	CC(C)(C)c1ccc(NC(=O)[C@H]2CC[C@H]3[C@@H]4CNC5=CC(=O)CC[C@]5(C)[C@H]4CC[C@]23C)c(C(F)(F)F)c1 [Compound 100, 17β-N-(4-t-Butyl-2-trifluoromethyl)phenyl-carbamoyl-6-azaandrost-4-en-3-one]
< 10	< 10	C[C@]12CC[C@H]3[C@@H](CNC4=CC(=O)CC[C@@]43C)[C@@H]1CC[C@@H]2C(=O)NC1(c2ccc(Cl)cc2Cl)CC1 [Compound 101, 17β-N-1-(2,4-Dichlorophenyl)cyclopropyl-carbamoyl-6-azaandrost-4-en-3-one]
10 to 100	< 10	CCC(CC)(NC(=O)[C@H]1CC[C@H]2[C@@H]3CNC4=CC(=O)CC[C@]4(C)[C@H]3CC[C@]12C)c1ccccc1 [Compound 103, 17β-N-(1-Ethyl-1-phenyl)propyl-carbamoyl-6-azaandrost-4-en-3-one]
< 10	< 10	CCN(CC)C(=O)c1ccc(C(C)(C)C)c(NC(=O)[C@H]2CC[C@H]3[C@@H]4CNC5=CC(=O)CC[C@]5(C)[C@H]4CC[C@]23C)c1 [Compound 105, 17β-N-(2-t-Butyl-5-N,N-diethylcarbamoyl)phenyl-carbamoyl-6-azaandrost-4-en-3-one]
> 100	< 10	C[C@]12CC[C@H]3[C@@H](CNC4=CC(=O)CC[C@@]43C)[C@@H]1CC[C@@H]2C(=O)Nc1cccc(C#N)c1 [Compound 107, 17β-N-(3-Cyano)phenyl-carbamoyl-6-azaandrost-4-en-3-one]
10 to 100	< 10	CC(C)(C)c1ccc(NC(=O)[C@H]2CC[C@H]3[C@@H]4CNC5=CC(=O)CC[C@]5(C)[C@H]4CC[C@]23C)cc1 [Compound 108, 17β-N-(4-t-Butyl)phenyl-carbamoyl-6-azaandrost-4-en-3-one]
10 to 100	< 10	CC1(C)Cc2ccccc2C1NC(=O)[C@H]1CC[C@H]2[C@@H]3CNC4=CC(=O)CC[C@]4(C)[C@H]3CC[C@]12C (stereo partly drawn) [Compound 110, 17β-N-1-(2,2-Dimethyl)indanyl-carbamoyl-6-azaandrost-4-en-3-one]

The remaining lines, values behind:

Compound	IC50 [1] [nM]	IC50 [2] [nM]
COc1ccccc1Oc1ccc(C(F)(F)F)cc1NC(=O)[C@H]1CC[C@H]2[C@@H]3CNC4=CC(=O)CC[C@]4(C)[C@H]3CC[C@]12C [Compound 80]	10 to 100	< 10
C[C@]12CC[C@H]3[C@@H](CNC4=CC(=O)CC[C@@]43C)[C@@H]1CC[C@@H]2C(=O)Nc1cc(C(F)(F)F)ccc1Oc1ccc(Cl)cc1 [Compound 81, 17β-N-(2-(O-4-Chlorophenyl)-5-trifluoromethyl)phenyl-carbamoyl-6-azaandrost-4-en-3-one]	10 to 100	< 10
CC1CCC(C(C)C)C(OC(=O)OC[C@H]2CC[C@H]3[C@@H]4CNC5=CC(=O)CC[C@]5(C)[C@H]4CC[C@]23C)C1 (stereo partly drawn) [Compound 89, 17β-Hydroxymethyl-(menthylcarbonate)-6-azaandrost-4-en-3-one]	10 to 100	< 10
C[C@]12CC[C@H]3[C@@H](CNC4=CC(=O)CC[C@@]43C)[C@@H]1CC[C@@H]2COC(=O)Oc1ccccc1 [Compound 90, 17β-Hydroxymethyl-(phenylcarbonate)-6-azaandrost-4-en-3-one]	< 10	< 10
CC1=C2NC[C@H]3[C@@H]4CC[C@H](C(=O)Nc5c(C(C)C)cccc5C(C)C)[C@@]4(C)CC[C@@H]3[C@@]2(C)C=CC1=O [Compound 94, 17β-N-(2,6-Di-i-propyl)phenyl-carbamoyl-6-azaandrost-4-methyl-1,4-dien-3-one]	10 to 100	< 10
CC(C)NC(=O)N(C(=O)[C@H]1CC[C@H]2[C@@H]3CNC4=CC(=O)CC[C@]4(C)[C@H]3CC[C@]12C)C(C)C [Compound 95, 17β-(N-i-Propyl-N-(N-i-propylcarbamoyl))-carbamoyl-6-azaandrost-4-en-3-one]	> 100	10 to 100
C[C@]12CC[C@H]3[C@@H](CNC4=CC(=O)CC[C@@]43C)[C@@H]1CC[C@@H]2C(=O)N(C(=O)NC1CCCCC1)C1CCCCC1 [Compound 96, 17β-(N-cyclohexyl-N-(N-cyclohexylcarbamoyl))-carbamoyl-6-azaandrost-4-en-3-one]	10 to 100	< 10
C[C@]12CC[C@H]3[C@@H](CNC4=CC(=O)CC[C@@]43C)[C@@H]1CC[C@@H]2CNC(=O)NC12CC3CC(CC(C3)C1)C2 [Compound 98, 17β-Aminomethyl-(1-adamantylurea)-6-azaandrost-4-en-3-one]	< 10	< 10
CC(C)c1cccc(C(C)C)c1NC(=O)OC[C@H]1CC[C@H]2[C@@H]3CNC4=CC(=O)CC[C@]4(C)[C@H]3CC[C@]12C [Compound 99, 17β-Hydroxymethyl-(2,6-diisopropylphenylcarbamate)-6-azaandrost-4-en-3-one]	< 10	< 10
C[C@]12CC[C@H]3[C@@H](CNC4=CC(=O)CC[C@@]43C)[C@@H]1CC[C@@H]2C(=O)NC1(c2cccc(C(F)(F)F)c2)CCCC1 [Compound 102, 17β-N-1-(3-Trifluoromethylphenyl)cyclopentyl-carbamoyl-6-azaandrost-4-en-3-one]	< 10	< 10
C[C@]12CC[C@H]3[C@@H](CNC4=CC(=O)CC[C@@]43C)[C@@H]1CC[C@@H]2C(=O)NC1(c2ccc(F)cc2)CCCC1 [Compound 104, 17β-N-1-(4-Fluorophenyl)cyclopentyl-carbamoyl-6-azaandrost-4-en-3-one]	10 to 100	< 10
C[C@]12CC[C@H]3[C@@H](CNC4=CC(=O)CC[C@@]43C)[C@@H]1CC[C@@H]2C(=O)NC1(c2ccc(C(F)(F)F)cc2)CCCC1 [Compound 106, 17β-N-1-(4-Trifluoromethylphenyl)cyclopentyl-carbamoyl-6-azaandrost-4-en-3-one]	< 10	< 10
C[C@]12CC[C@H]3[C@@H](CNC4=CC(=O)CC[C@@]43C)[C@@H]1CC[C@@H]2C(=O)NC1(c2ccc(F)cc2)CCCCC1 [Compound 109, 17β-N-1-(4-Fluorophenyl)cyclohexyl-carbamoyl-6-azaandrost-4-en-3-one]	< 10	< 10
COc1ccc(C2(NC(=O)[C@H]3CC[C@H]4[C@@H]5CNC6=CC(=O)CC[C@]6(C)[C@H]5CC[C@]34C)CCCCC2)cc1 [Compound 111, 17β-N-1-(4-Methoxyphenyl)cyclohexyl-carbamoyl-6-azaandrost-4-en-3-one]	< 10	< 10
